Reference: ChEMBL document CHEMBL2016493, “Design, synthesis, synergistic antimicrobial activity and cytotoxicity of 4-aryl substituted 3,4-dihydropyrimidinones of curcumin” (Bioorg Med Chem Lett, 2012)
Activity calls are given as the source filed them.

Legend:
[1] = test system: Escherichia coli; assay: Antibacterial activity against Escherichia coli ATCC 35218 at 20 uM/ml after 24 hrs by kirby-bauer method; assay type: functional
[2] = test system: Aspergillus niger; assay: Antifungal activity against Aspergillus niger MTCC 1108 after 48 hrs by poison food method; assay type: functional
[3] = test system: Pseudomonas aeruginosa; assay: Antibacterial activity against Pseudomonas aeruginosa ATCC 15499 at 40 uM/ml after 24 hrs by kirby-bauer method; assay type: functional
[4] = test system: Salmonella typhimurium; assay: Antibacterial activity against Salmonella typhimurium ATCC 23564 at 40 uM/ml after 24 hrs by kirby-bauer method; assay type: functional, Salmonella enterica subsp. enterica serovar Typhimurium; conditions: Salmonella enterica, ATCC 23564, 24 h; read-out: IZ
[5] = test system: HepG2
[6] = test system: Aspergillus flavus; assay: Antifungal activity against Aspergillus flavus MTCC 1021 after 48 hrs by poison food method MTCC 1021; assay type: functional
[7] = test system: Aspergillus niger; assay: Antifungal activity against Aspergillus niger MTCC 1108 at 160 uM/ml after 48 hrs by paper disc diffusion method; assay type: functional
[8] = test system: Escherichia coli; assay: Antibacterial activity against Escherichia coli ATCC 35218 at 80 uM/ml after 24 hrs by kirby-bauer method; assay type: functional; conditions: ATCC 35218, 24 h, read-out: IZ
[9] = test system: Pseudomonas aeruginosa; assay: Antibacterial activity against Pseudomonas aeruginosa ATCC 15499 at 160 uM/ml after 24 hrs by kirby-bauer method; assay type: functional; conditions: ATCC 15499, 24 h, read-out: IZ
[10] = test system: Salmonella typhimurium; assay: Antibacterial activity against Salmonella typhimurium ATCC 23564 at 160 uM/ml after 24 hrs by kirby-bauer method; assay type: functional, Salmonella enterica subsp. enterica serovar Typhimurium; conditions: Salmonella enterica, ATCC 23564, 24 h; read-out: IZ
[11] = test system: Curvularia lunata; assay: Antifungal activity against Curvularia lunata MTCC 581 at 20 uM/ml after 48 hrs by paper disc diffusion method; assay type: functional
[12] = test system: Trichoderma viride; assay: Antifungal activity against Trichoderma viride MTCC 1107 at 20 uM/ml after 48 hrs by paper disc diffusion method; assay type: functional
[13] = test system: HCT-116
[14] = test system: Escherichia coli; assay: Antibacterial activity against Escherichia coli ATCC 35218 at 40 uM/ml after 24 hrs by kirby-bauer method; assay type: functional
[15] = test system: Pseudomonas aeruginosa; assay: Antibacterial activity against Pseudomonas aeruginosa ATCC 15499 at 20 uM/ml after 24 hrs by kirby-bauer method; assay type: functional
[16] = test system: Curvularia lunata; assay: Antifungal activity against Curvularia lunata MTCC 581 at 40 uM/ml after 48 hrs by paper disc diffusion method; assay type: functional
[17] = test system: Burkholderia pseudomallei; assay: Antibacterial activity against Burkholderia pseudomallei NTCC 10274 at 80 uM/ml after 24 hrs by kirby-bauer method; assay type: functional; conditions: NTCC 10274, 24 h, read-out: IZ
[18] = test system: Curvularia lunata; assay: Antifungal activity against Curvularia lunata MTCC 581 at 80 uM/ml after 48 hrs by paper disc diffusion method; assay type: functional; conditions: MTCC 581, 48 h, read-out: IZ
[19] = test system: Curvularia lunata; assay: Antifungal activity against Curvularia lunata MTCC 581 at 160 uM/ml after 48 hrs by paper disc diffusion method; assay type: functional; conditions: MTCC 581, 48 h, read-out: IZ
[20] = test system: QG-56; assay: Cytotoxicity against human QG56 cells after 48 hrs by MTT assay; assay type: functional, cell-based
[21] = test system: Trichoderma viride; assay: Antifungal activity against Trichoderma viride MTCC 1107 at 160 uM/ml after 48 hrs by paper disc diffusion method; assay type: functional; conditions: MTCC 1107, 48 h, read-out: IZ
[22] = test system: Staphylococcus aureus; assay: Antibacterial activity against Staphylococcus aureus ATCC 11632 at 160 uM/ml after 24 hrs by kirby-bauer method; assay type: functional
[23] = test system: Burkholderia pseudomallei; assay: Antibacterial activity against Burkholderia pseudomallei NTCC 10274 at 20 uM/ml after 24 hrs by kirby-bauer method; assay type: functional
[24] = test system: Burkholderia pseudomallei; assay: Antibacterial activity against Burkholderia pseudomallei NTCC 10274 at 40 uM/ml after 24 hrs by kirby-bauer method; assay type: functional
[25] = test system: Burkholderia pseudomallei; assay: Antibacterial activity against Burkholderia pseudomallei NTCC 10274 at 160 uM/ml after 24 hrs by kirby-bauer method; assay type: functional; conditions: NTCC 10274, 24 h, read-out: IZ
[26] = test system: Pseudomonas aeruginosa; assay: Antibacterial activity against Pseudomonas aeruginosa ATCC 15499 at 80 uM/ml after 24 hrs by kirby-bauer method; assay type: functional; conditions: ATCC 15499, 24 h, read-out: IZ
[27] = test system: Salmonella typhimurium; assay: Antibacterial activity against Salmonella typhimurium ATCC 23564 at 20 uM/ml after 24 hrs by kirby-bauer method; assay type: functional; conditions: Salmonella enterica subsp. enterica serovar Typhimurium
[28] = test system: Escherichia coli; assay: Antibacterial activity against Escherichia coli ATCC 35218 at 160 uM/ml after 24 hrs by kirby-bauer method; assay type: functional; conditions: ATCC 35218, 24 h, read-out: IZ
[29] = test system: Trichoderma viride; assay: Antifungal activity against Trichoderma viride MTCC 1107 at 80 uM/ml after 48 hrs by paper disc diffusion method; assay type: functional
[30] = test system: Aspergillus flavus; assay: Antifungal activity against Aspergillus flavus MTCC 1021 at 160 uM/ml after 48 hrs by paper disc diffusion method; assay type: functional
[31] = test system: Trichoderma viride; assay: Antifungal activity against Trichoderma viride MTCC 1107 at 40 uM/ml after 48 hrs by paper disc diffusion method; assay type: functional
[32] = test system: Salmonella typhimurium; assay: Antibacterial activity against Salmonella typhimurium ATCC 23564 at 80 uM/ml after 24 hrs by kirby-bauer method; assay type: functional, Salmonella enterica subsp. enterica serovar Typhimurium; conditions: Salmonella enterica, ATCC 23564, 24 h; read-out: IZ

COc1cc(/C=C/C(=O)CC(=O)/C=C/c2ccc(O)c(OC)c2)ccc1O [CURCUMIN]
12 mm: zone of inhibition at 160 µM [10]
8 mm: zone of inhibition at 80 µM [8] | zone of inhibition at 80 µM [17]
inactive: inhibition zone (IZ) [1] | MIC [2] | inhibition zone (IZ) [3] | MIC [6] | inhibition zone (IZ) [7] | inhibition zone (IZ) [11] | inhibition zone (IZ) [12] | inhibition zone (IZ) [14] | inhibition zone (IZ) [15] | inhibition zone (IZ) [16] | inhibition zone (IZ) [22] | inhibition zone (IZ) [23] | inhibition zone (IZ) [24] | inhibition zone (IZ) [27] | inhibition zone (IZ) [29] | inhibition zone (IZ) [30] | inhibition zone (IZ) [31]
11 mm: zone of inhibition at 160 µM [9] | zone of inhibition at 160 µM [19]
9 mm: zone of inhibition at 40 µM [4] | zone of inhibition at 80 µM [18] | zone of inhibition at 160 µM [21] | zone of inhibition at 160 µM [25] | zone of inhibition at 80 µM [26]
10 mm: zone of inhibition at 160 µM [28] | zone of inhibition at 80 µM [32]
50 uM/ml: IC50 [5] | IC50 [13]
100 uM/ml: IC50 [20]
